From patent US20170281676A1, “HIV-CURE” (Lupus Foundation of Gainesville, priority 2016, published 2017)
Where two headings read alike, the source gives them in different places.

Assays:
[1] = tested on: human macrophage hybridoma cell line and primary monocytes; details: ethanol equivalent to 115, 345 and 690 mg/dl, 16 hours, then infected with HIV-1; cited from earlier work
[2] = tested on: peripheral blood lymphocytes; details: concentrations 300-790 mg/dl; cited from earlier work
[3] = tested on: HIV; details: HIV-positive person, 2 years after discharge; earlier viral load 60,000 copies per ml; never on antiretroviral medication
Source text: (§1) A person was brought to the emergency room by ambulance. The inventor was called to intubate for respiratory support. […] They were intubated with propofol and admitted to ICU. […] During the ICU stay, they were maintained in coma with propofol infusions and some opioid analgesics and muscle paralyzers, intubated and mechanically ventilated. Fluids given were mostly Ringer's lactate and dextrose 5% in water. Due to lack of history, the ICU staff assumed they were a chronic alcoholic. […] So, they treated the patient with ethanol infusion, trying to decrease the level slowly over days.

[4] = human, in vivo
Source text: as §1

[5] = in vivo; cited from earlier work
[6] = tested on: HIV-1; details: cited from earlier work
[7] = tested on: HIV virus; details: cited from earlier work
[8] = tested on: HIV virus; details: surfaces, 70% v/v ethanol, cited from earlier work
[9] = tested on: Feline Immunodeficiency Virus (FIV); details: by denaturing their molecules; cited from earlier work
[10] = human, in vivo; remark: listed apart in the source
[11] = tested on: HIV; details: by denaturing their molecules; cited from earlier work
[12] = in vivo; cited from earlier work; remark: listed apart in the source
[13] = tested on: bloodstream catheter-related infections; details: injected preventively in central venous catheters; cited from earlier work
[14] = tested on: primary human brain microvascular endothelial cells; details: concentrations equivalent to 79 mg/dl and 237 mg/dl; cited from earlier work
[15] = in vivo; cited from earlier work; remark: listed apart in the source
[16] = monkeys, 100 ppm for 2 years; cited from earlier work
[17] = humans exposed in workplace; cited from earlier work
[18] = water, alcohol, and organic solvents; cited from earlier work
[19] = mice, cited from earlier work
[20] = in vivo; cited from earlier work; remark: listed apart in the source
[21] = most animal species; cited from earlier work

CCO [ethanol]
effects in the immunogenic tests of the cells [1]: immunosuppressive effects
HIV DNA in peripheral blood lymphocytes and their proliferation [2]: increase
HIV viral load [3]: undetectable
permanent organ damage [4]: without causing any permanent organ damage
factor between breath and blood concentrations [5]: around 2300
rise of serum concentration after loading dose [5]: about 100 mg/dL
HIV-1 replication, another study ([6]; ethanol tested at 115, 345 and 690 mg/dl): same results
HIV-1 replication ([6]; human peripheral blood mononuclear cells, levels at the range of 400 mg/dl or less): increase the HIV-1 replication
damage to the product ([7]; human albumin and plasma products at 18,000 mg/dl and higher): no damage to the product was caused
concentration used for in vitro inactivation of HIV virus ([7]; human albumin and plasma products, and even higher): ≥ 18,000 mg/dl
time of contact needed for the inactivation of HIV virus ([8]; in some conditions, up to): up to 4 minutes
time of contact needed for the inactivation of HIV virus [8]: 2 min
inactivation of FIV in vitro [9]: inactivate
time to reach a level below 100 mg/dl [10]: 16 to 20 h
inactivation of HIV in vitro [11]: inactivate
blood level at usual starting of a comatose state [12]: 400 mg/dL
risk of bloodstream catheter-related infections [13]: decrease the risk
apoptosis induced by HIV-1 proteins [14]: strongly potentiate
placental penetration [15]: penetrates well the placenta

OCCO [ethylene glycol]
inactivation of FIV in vitro [9]: inactivate
inactivation of HIV in vitro [11]: inactivate

C1CO1 [ethylene oxide]
mortality [16]: did not have increased mortality
mortality [17]: no increase in mortality
solubility [18]: dissolves easily
mortality ([19]; 100 ppm for 2 years): did not have increased mortality
mortality ([19]; exposure to 400 ppm for 14 days): no death
mortality ([19]; higher levels like 800 ppm): deadly in 4 hours

CC(C)O [isopropanol]
serum elimination half-life [20]: 2.5 to 8 h
inactivation of FIV in vitro [9]: inactivate
inactivation of HIV in vitro [11]: inactivate
median lethal dose [21]: 4000 mg/kg

CO [methanol]
inactivation of FIV in vitro [9]: inactivate
inactivation of HIV in vitro [11]: inactivate
